# Patent publication US4735963A, “Anti-platelet aggregating 1,3-oxathiane derivatives, compositions, and method of use therefor” (Imperial Chemical Industries PLC, priority 1985, dated 1988)
# Tested on: TXA2
# Assay: rabbit aortal strip model, test (a)
# Assay type: cell-based
# Conditions: agonist TXA2 or U46619
# Description: (a) The rabbit aortal strip model devised by Piper and Vane (Nature, 1969, 223, 29-35) using as agonist a freshly prepared sample of TXA2, generated by addition of arachidonic acid (25 μg) to citrated, platelet rich rabbit plasma (250 μl) and allowing the mixture to aggregate fully over 90 seconds before use; alternatively the TXA2 mimetic agent known as U46619 (described by R L Jones et alia, in "Chemistry, Biochemistry and Pharmacological Activity of Prostanoids" edited by S M Roberts and F Scheinmann, at page 211, Pergamon Press, 1979) may be used as the agonist;
structure (smiles),measurement,value
"CC1(C)O[C@@H](c2ccccc2O)[C@@H](C/C=C\CCCC(=O)O)CS1 (relative stereo) [Example 1, 5(Z)-7-(6-o-hydroxyphenyl-2,2-dimethyl-1,3-oxathian-cis-5-yl)heptenoic acid]",pA2 in test (a),7.42
